Experimental data published in ChEMBL document CHEMBL1133367, “Structure-activity relationship studies of chloromethyl ketone derivatives for selective human chymase inhibitors” (Bioorg Med Chem Lett, 2000).

Legend:
Trypsin = Trypsin (Sus scrofa, UniProt P00761); test: Inhibitory activity against porcine pancreatic trypsin (TRP)
Chymotrypsinogen A = Chymotrypsinogen A (Bos taurus, UniProt P00766); test: Inhibitory activity against alpha-chymotrypsin (alpha-CT)
Chymase = target: T1, Chymase (Homo sapiens, UniProt P23946); test: Inhibitory activity against human serine protease chymase
T1 sequence (P23946 whole entry): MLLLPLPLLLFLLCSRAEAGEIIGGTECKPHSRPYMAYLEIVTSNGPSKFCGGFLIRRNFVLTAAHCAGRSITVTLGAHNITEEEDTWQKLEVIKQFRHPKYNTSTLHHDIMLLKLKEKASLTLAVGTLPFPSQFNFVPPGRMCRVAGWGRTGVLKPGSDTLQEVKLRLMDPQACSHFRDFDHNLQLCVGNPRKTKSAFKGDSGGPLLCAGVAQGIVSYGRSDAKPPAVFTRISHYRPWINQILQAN

Cathepsin G = target: T2, Cathepsin G (Homo sapiens, UniProt P08311); test: Inhibitory activity against human leukocyte cathepsin G
T2 sequence (P08311 whole entry): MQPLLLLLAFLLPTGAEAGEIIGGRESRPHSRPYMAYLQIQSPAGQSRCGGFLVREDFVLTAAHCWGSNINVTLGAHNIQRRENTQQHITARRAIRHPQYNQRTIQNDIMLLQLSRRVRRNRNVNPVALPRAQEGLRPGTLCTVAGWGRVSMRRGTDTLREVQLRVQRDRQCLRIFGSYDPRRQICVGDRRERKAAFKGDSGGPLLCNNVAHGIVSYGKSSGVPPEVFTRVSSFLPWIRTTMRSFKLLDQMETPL

Trypsin, sequence (P00761 whole entry): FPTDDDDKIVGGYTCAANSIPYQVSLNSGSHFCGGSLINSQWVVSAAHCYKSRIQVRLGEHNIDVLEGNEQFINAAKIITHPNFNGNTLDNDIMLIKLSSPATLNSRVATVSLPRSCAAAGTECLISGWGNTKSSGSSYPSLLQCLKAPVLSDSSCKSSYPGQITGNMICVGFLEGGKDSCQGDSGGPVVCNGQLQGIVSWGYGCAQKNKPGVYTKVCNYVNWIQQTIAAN

IC50 (Trypsin) [µM] | IC50 (Chymotrypsinogen A) [µM] | IC50 (Chymase) [µM] | IC50 (Cathepsin G) [µM] | Structure (SMILES)
> 1000 | 14 | 2.7 | – | O=C(CCc1ccc(O)cc1)N[C@@H](Cc1ccccc1)C(=O)CCl
> 1000 | 51 | – | – | COc1ccc(CCC(=O)N[C@@H](Cc2ccccc2)C(=O)CCl)cc1OC
30 | 17 | – | – | O=C(CCc1ccc(C(F)(F)F)cc1)N[C@@H](Cc1ccccc1)C(=O)CCl
75 | 5.2 | 1.8 | – | O=C(CCc1cccc(O)c1)N[C@@H](Cc1ccccc1)C(=O)CCl
> 1000 | 37 | – | – | O=C(CCc1ccccc1)N[C@@H](Cc1ccccc1)C(=O)CCl
> 1000 | 18 | 1.9 | – | O=C(CCc1ccc(Cl)cc1)N[C@@H](Cc1ccccc1)C(=O)CCl
44 | 23 | 0.89 | – | O=C(CCc1cccc(Cl)c1)N[C@@H](Cc1ccccc1)C(=O)CCl
210 | 8.7 | 15 | – | O=C(/C=C/c1ccccc1)N[C@@H](Cc1ccccc1)C(=O)CCl
> 1000 | 44 | 1.2 | – | O=C(CCc1cccc(F)c1)N[C@@H](Cc1ccccc1)C(=O)CCl
28 | 4.2 | 3.7 | – | O=C(CCc1ccc(Cl)c(Cl)c1)N[C@@H](Cc1ccccc1)C(=O)CCl
34 | 20 | – | – | O=C(CCc1cccc(C(F)(F)F)c1)N[C@@H](Cc1ccccc1)C(=O)CCl
600 | 12 | 0.78 | – | Cc1ccccc1CCC(=O)N[C@@H](Cc1ccccc1)C(=O)CCl
34 | 2.7 | – | – | COc1ccccc1CCC(=O)N[C@@H](Cc1ccccc1)C(=O)CCl
290 | 11 | 0.43 | – | Cc1cccc(CCC(=O)N[C@@H](Cc2ccccc2)C(=O)CCl)c1
210 | 17 | 0.4 | – | O=C(N[C@@H](Cc1ccccc1)C(=O)CCl)OCc1ccccc1
> 1000 | 85 | – | – | COc1cccc(CCC(=O)N[C@@H](Cc2ccccc2)C(=O)CCl)c1
– | 34 | 0.36 | – | O=C(CCc1ccccc1F)N[C@@H](Cc1ccccc1)C(=O)CCl
> 1000 | 2.2 | – | – | COc1cccc(CCC(=O)N[C@@H](Cc2ccccc2)C(=O)CCl)c1OC
> 1000 | 20 | 4.7 | – | O=C(Cc1ccccc1)N[C@@H](Cc1ccccc1)C(=O)CCl
4 | 39 | – | – | CC(C)c1ccc(CCC(=O)N[C@@H](Cc2ccccc2)C(=O)CCl)cc1
> 1000 | 100 | 2.4 | – | O=C(CCc1ccc(F)cc1)N[C@@H](Cc1ccccc1)C(=O)CCl
240 | 9.3 | 1.3 | – | O=C(N[C@@H](Cc1ccccc1)C(=O)CCl)c1ccccc1
> 1000 | 2.2 | – | 9.3 | COc1ccc(CCC(=O)N[C@@H](Cc2ccccc2)C(=O)CCl)cc1
85 | 97 | 0.6 | – | O=C(CCc1ccccc1Cl)N[C@@H](Cc1ccccc1)C(=O)CCl
97 | 10 | 0.4 | – | O=C(CCc1cccc(Cl)c1Cl)N[C@@H](Cc1ccccc1)C(=O)CCl
120 | 37 | – | – | CCc1ccc(CCC(=O)N[C@@H](Cc2ccccc2)C(=O)CCl)cc1
200 | 140 | 3.3 | 110 | Cc1ccc(S(=O)(=O)N[C@@H](Cc2ccccc2)C(=O)CCl)cc1 [TPCK]
260 | 97 | 0.3 | – | Cc1ccc(CCC(=O)N[C@@H](Cc2ccccc2)C(=O)CCl)cc1

Structure (SMILES) | IC50 (Trypsin) [µM] | IC50 (Chymotrypsinogen A) [µM] | IC50 (Chymase) [µM] | IC50 (Cathepsin G) [µM]
O=C(CCCCc1ccccc1)N[C@@H](Cc1ccccc1)C(=O)CCl | > 1000 | 18 | 1.2 | –
O=C(CCCc1ccccc1)N[C@@H](Cc1ccccc1)C(=O)CCl | 690 | 26 | 2.5 | –
